According to patent US11090273B2, “Tagged poly(ester amide urethane)s, nanoparticles formed from same, and uses thereof” (Cornell University, priority 2016, dated 2021):

Assays:
[1] = tested on: HeLa cells; assay: Mitochondrial membrane potential (ΔΨm) change, JC-1 flow cytometry; assay type: cell-based; conditions: 2 μg/mL GA equivalent (CCCP 50 μM), 24 h
[2] = tested on: A549 cells; assay: as above; assay type: cell-based, human; conditions: 2 μg/mL GA equivalent (CCCP 50 μM), 24 h
[3] = tested on: HCT116 cells; assay: Cellular apoptosis by flow cytometry (Annexin V-FITC/PI); assay type: cell-based, human; conditions: HCT 116; 2 μg/mL GA or equal amount loaded; 24 h
Experimental: Apoptosis was assessed using staining with Annexin V-FITC/PI apoptosis detection kit (Affymetrix, CA) according to the manufacturer's instruction followed by flow cytometry analysis.

[4] = tested on: MMP-2 and MMP-9 activity of A549 cells; assay: Gelatin zymography of MMP activity; assay type: cell-based, human; conditions: 0.6 μg/mL GA equivalent, serum-free media, 16 h
[5] = tested on: MCF-7 human breast cancer xenograft tumor; conditions: xenograft tumor at end of study
Experimental: In vivo xenograft Protocols Used. Female BALB/c nude mice, 8-weeks old, were obtained from the Laboratory Animal Services Centre, The Chinese University of Hong Kong. Mice were kept at room temperature 23±2° C. with an alternating 12-h light-dark cycle, and were allowed access to food and water ad libitum.
Before inoculation, 10 mg/kg Estradiol benzoate was given into mice through intraperitoneal (IP) injection with 2-day intervals. MCF-7 cells (4×10^6 cells per mouse) were suspended in PBS and inoculated subcutaneously into the left flank of each mouse, and tumor growth was monitored regularly. […] Equal volumes of saline were used as solvent for the free drug groups.
The therapy was continued six times at 2-day intervals through tail vein injection. Estradiol benzoate was also IP injected into mice at 2-day intervals during administration. The antitumor activity of the tested formulations was estimated by recording the changes in tumor mass. Tumor volumes were monitored by recording the tumor length and width with a caliper then calculated using the equation, V=0.5×a×b^2, where V is tumor volume (mm), a is tumor length (mm), and b is tumor width (mm). Mice were sacrificed on the 12th day after administration, and the tumors were weighed. […]

N#CC(C#N)=NNc1cccc(Cl)c1 [CCCP, carbonyl cyanide 3-chlorophenylhydrazone]
percentage of cell population with severe loss of ΔΨm [1]: 60.0% | percentage of cell population with severe loss of ΔΨm [2]: 89.7%

CC(C)=CCC[C@]1(C)C=Cc2c(O)c3c(c(CC=C(C)C)c2O1)O[C@]12C(=C[C@@H]4C[C@H]1C(C)(C)O[C@@]2(C/C=C(/C)C(=O)O)C4=O)C3=O [GA, Gambogic acid]
percentage of dead cells [3]: 27.7% | percentage of healthy cells [3]: 68.1% | percentage of late apoptotic cells [3]: 2.0% | percentage of cell population with severe loss of ΔΨm [1]: 29.7% | percentage of cell population with severe loss of ΔΨm [2]: 60.1% | MMP band size and intensity / MMP activity (gelatin zymography) [4]: reduced when comparing to the control sample | H&E staining: vacuoles in the tumor tissue [5]: fewer vacuoles
